For one assay, the system named is SK-MEL-28 cells. The assay is described as follows: Inhibitory activity against cancer cells (MTT cell viability), SK-MEL-28. Format: cell-based. The following applies: Homo sapiens, SK-MEL-28, 48 hr incubation. The protocol:
(§1) The inhibitory activities of biguanide derivatives against cancer cells were evaluated in the cell line SK-MEL-28 derived from human Melanoma cell, Miapaka-2 cell line derived from human pancreatic cancer cell and HCT116 cell line derived from human colorectal cancer cell by measuring the concentration that inhibits 50% of the growth of the cell lines (the half maximal inhibitory concentration, IC50).
(§2) Firstly, SK-MEL-28 cells were grown to be density of 5,000 cells/well in RPMI-1640 media supplemented with 10% (v/v) bovine calf serum, on 96-well plates for 16 hr. To measure the IC50 of each compound, the cells were incubated for 48 hr with the 100 mM PBS stock compounds at an amount of 10 mM, 1 mM, 200 uM, 40 uM, 8 uM, 1.6 uM, 0.32 uM or 0.064 uM; 50 mM PBS and EtOH stock compounds at an amount of 1 mM, 200 uM, 40 uM, 8 uM, 1.6 uM, 0.32 uM and 0.064 uM; and 50 mM DMSO stock compounds at an amount of 100 uM, 25 uM, 6.25 uM, 1.56 uM, 0.39 uM, 0.10 uM and 0.02 uM, respectively. To test the viable cells after incubation with each compound, the cell cultures were incubated additionally for 2 hr in the presence of MTT. The produced formazan crystals were dissolved with dimethyl sulfoxide and then measured by detecting the absorbance at 560 nm.
(§3) After the 48 hr incubation, the viable cells were counted on the well plates treated with the compounds of the Examples relative to the count of the viable cells on the non-treated plates, and then was represented as the cell viability (%). By using the cell viability (%) result, the cell viability curve was plotted, and IC50 was calculated from the curve to evaluate the inhibitory activity against cancer cells.
Broadly, the IC50 is the concentration that gives 50% inhibition. As to `N=C(NC(=N)N1CCCC1)Nc1ccc2c(c1)CCCC2` [Example 14, N1-pyrrolidine-N5-(5,6,7,8-tetrahydronaphthalene-2-yl) biguanide], the midpoint of inhibition, the IC50, lay at 29.5 µM.

The test system of the next assay is HCT116 cell. In words: Inhibitory activity against cancer cells (MTT cell viability), HCT116. The class given is cell-based, human. To be noted: HCT 116, 48 hr incubation. The protocol:
as §1, §2, §3
(§4) The inhibitory activities of biguanide derivatives against cancer cells of Miapaca-2 cell and HCT116 cell were evaluated according to the substantially same method as described in SK-MEL-28 cell, except that DMEM media supplemented with 10% (v/v) bovine calf serum was used instead of RPMI-1640 media supplemented with 10% (v/v) bovine calf serum for SK-MEL-28 cell.
For “N1-3-phenoxyphenyl-N5-(4-trifluoromethoxy)phenyl biguanide [Example 76]”, 3.12 µM corresponded to half-maximal inhibition (IC50).

Staying with this assay, now noted: Homo sapiens, HCT 116, 48 hr incubation.
On to `N=C(NC(=N)N1CCCC1)Nc1ccc2c(c1)CCCC2` [Example 14, N1-pyrrolidine-N5-(5,6,7,8-tetrahydronaphthalene-2-yl) biguanide], for which the IC50 was greater than 100 µM. Take `C[C@@H]1CCC[C@H](C)N1C(=N)NC(=N)Nc1ccc(CNC(=O)c2ccccc2-c2c3ccc(=O)cc-3oc3cc(O)ccc23)cc1` [Example 84, N-(4-(3-(((2R,6S)-2,6-dimethylpiperidin-1-yl)(imino)methyl)guanidino)benzyl)-2-(6-hydroxy-3-oxo-3H-xanthen-9-yl)benzamide]: the midpoint of inhibition, the IC50, lay at 27.4 µM. The same measure, in the same setting: under `N=C(NC(=N)Nc1ccc(-c2ccccc2)cc1)Nc1ccc(OC(F)(F)F)cc1` [Example 75, N1-(4-trifluoromethoxy)phenyl-N5-(N-biphenyl-4-yl) biguanide] stands 8.21 µM; under `CN(C(=N)NC(=N)N1CCCC1)c1c(F)cccc1F` [Example 4, N1-pyrrolidine-N5-(2,6-difluoro-N5-methyl)phenyl biguanide], greater than 100 µM. Compound `CCNC(=O)c1ccc(CNC(=N)NC(=N)N2CCCC2)cc1` [Example 27, N-ethyl-4-((3-(imino(pyrrolidin-1-yl)methyl)guanidino)methyl)benzamide] showed an IC50 greater than 100 µM. `CN1CCN(C(=N)NC(=N)NCc2ccc(C(F)(F)F)c(F)c2)CC1` [Example 42, N1-4-methyl piperazine-N5-(3-fluoro-4-trifluoromethyl)benzyl biguanide] returned a half-inhibitory concentration (IC50) greater than 100 µM. Compound `N=C(NC(=N)N1CC=CCC1)Nc1ccc(CCNC(=O)CCCCC2CC3NC(=O)NC3S2)cc1` (stereo not drawn) [Example 80, N-(4-(3-((5,6-dihydropyridin-1(2H)-yl)(imino)methyl)guanidino)phenethyl)-5-(2-oxohexahydro-1H-thieno[2,3-d]imidazol-5-yl)pentanamide] yielded an IC50 greater than 100 µM.

`N=C(N)NC(=N)Nc1ccc(SC(F)(F)F)cc1` [Example 60, N5-(4-trifluoromethylthio)phenyl biguanide] yielded an IC50 of 49.8 µM. The same measure, in the same setting: under `N=C(NC(=N)N1CCCC1)Nc1ccc(CCNC(=O)CCCCC2CC3NC(=O)NC3S2)cc1` (stereo not drawn) [Example 77, N-(4-(3-(imino(pyrrolidin-1-yl)methyl)guanidino)phenethyl)-5-(2-oxohexahydro-1H-thieno[2,3-d]imidazol-5-yl)pentaneamide] stands greater than 100 µM; under `N=C(NC(=N)N1CCCC1)Nc1cccc(-c2ccc(F)cc2)c1` [Example 10, N1-pyrrolidine-N5-(4′-fluorobiphenyl-3-yl) biguanide], 6.28 µM; under `N=C(NC(=N)N1CCC(F)(F)C1)Nc1ccc(OC(F)(F)F)cc1` [Example 51, N1-3,3-difluoro pyrrolidine-N5-(4-trifluoromethoxy)phenyl biguanide], 7.83 µM. Still for that read-out and setting: as for `N=C(NC(=N)N1CCC(O)CC1)Nc1ccc(Oc2ccccc2)cc1` [Example 21, N1-4-hydroxy piperidine-N5-(4-phenoxy)phenyl biguanide], the figure is greater than 100 µM. Take `CN1CCN(C(=N)NC(=N)Nc2ccc(Cl)c(OC(F)(F)F)c2)CC1` [Example 39, N1-4-methyl piperazine-N5-(4-chloro-3-trifluoromethoxy)phenyl biguanide]: the midpoint of inhibition, the IC50, lay at 7.5 µM. Still for that read-out and setting: under `CN1CCN(C(=N)NC(=N)Nc2ccccc2Br)CC1` [Example 33, N1-4-methyl piperazine-N5-(2-bromo)phenyl biguanide] stands greater than 100 µM; under `N=C(NC(=N)N1CCCC1)Nc1ccc(CCC(=O)N2CCCCC2)cc1` [Example 26, N—(N-(4-(3-oxo-3-(piperidin-1-yl)propyl)phenyl)carbamimidoyl)pyrrolidine-1-carboximidamide], greater than 100 µM; under `COc1ccc2[nH]c(NC(=N)N3CCCC3)nc2c1` [Example 95, N-(5-methoxy-1H-benzo[d]imidazol-2-yl)pyrrolidine-1-carboximidamide], greater than 100 µM. Compound `CN1CCN(C(=N)NC(=N)NCc2ccc(OC(F)(F)F)c(F)c2)CC1` [Example 43, N1-4-methyl piperazine-N5-(3-fluoro-4-trifluoromethoxy)benzyl biguanide] displayed an IC50 greater than 100 µM.

On to `N=C(N)NC(=N)Nc1cc(C(F)(F)F)ccc1Cl` [Example 57, N5-(2-chloro-5-trifluoromethyl)phenyl biguanide], for which the 50% inhibitory concentration (IC50) was greater than 100 µM. Consider `CN1CCN(C(=N)NC(=N)Nc2ccc(Cl)c(C(F)(F)F)c2)CC1` [Example 38, N1-4-methyl piperazine-N5-(4-chloro-3-trifluoromethyl)phenyl biguanide], for which the IC50 came out at 11.7 µM. `N=C(N)NC(=N)Nc1ccc(Cl)cc1Cl` [Example 54]: the IC50 is greater than 100 µM.

The compound `N=C(NC(=N)N1CCCC1)Nc1ccc(-c2ccccc2)cc1` [Example 9, N1-pyrrolidine-N5-(N-biphenyl-4-yl) biguanide] returned an IC50 of 7.43 µM. Take `N=C(NCCc1ccc(F)cc1)NC(=N)N1CCCC1` [Example 12, N1-pyrrolidine-N5-(4-fluoro)phenethyl biguanide]: inhibition was half-maximal at 81.9 µM (IC50). Still for that read-out and setting: as for `CN1CCN(C(=N)NC(=N)NCc2ccc(F)c(OC(F)(F)F)c2)CC1` [Example 41, N1-4-methyl piperazine-N5-(4-fluoro-3-trifluoromethoxy)benzyl biguanide], the figure is greater than 100 µM; as for `N=C(NCc1ccco1)NC(=N)Nc1ccc(C(F)(F)F)cc1` [Example 72, N1-furan-2-ylmethyl-N5-(4-trifluoromethyl)phenyl biguanide], 8.8 µM; as for `N=C(NC(=N)Nc1cnccn1)Nc1ccc(C(F)(F)F)cc1` [Example 67, N1-2-pyrazine-N5-(4-trifluoromethyl)phenyl biguanide], 50.7 µM. On the same count and under the same terms, under `N=C(N)NC(=N)Nc1ccc(F)c(Cl)c1` [Example 58, N5-(3-chloro-4-fluoro)phenyl biguanide] stands greater than 100 µM; under `N=C(NC(=N)Nc1ccc(F)c(C(F)(F)F)c1)Nc1cccnc1` [Example 65, N1-3-pyridine-N5-(4-fluoro-3-trifluoromethyl)phenyl biguanide], greater than 100 µM. The compound `N=C(NC(=N)Nc1cccnc1)Nc1ccc(OC(F)(F)F)cc1` [Example 63, N1-3-pyridine-N5-(4-trifluoromethoxy)phenyl biguanide] yielded an IC50 greater than 100 µM. Still for that read-out and setting: as for `N=C(NC(=N)Nc1cnccn1)Nc1ccc(OC(F)(F)F)cc1` [Example 66, N1-2-pyrazine-N5-(4-trifluoromethoxy)phenyl biguanide], the figure is greater than 100 µM; as for `N=C(NC(=N)N1CCC(F)(F)CC1)Nc1ccc(OC(F)(F)F)cc1` [Example 52, N1-4,4-difluoro piperidine-N5-(4-trifluoromethoxy)phenyl biguanide], 7.65 µM. On the same count and under the same terms, as for `N=C(N)NC(=N)Nc1cccc(Cl)c1Cl` [Example 59, N5-(2,3-dichloro)phenyl biguanide], the figure is greater than 100 µM. With `N=C(NCc1ccco1)NC(=N)Nc1ccc(Cl)cc1` [Example 70, N1-furan-2-ylmethyl-N5-(4-chloro)phenyl biguanide], inhibition was half-maximal at 13.5 µM (IC50).

On to `COc1ccc(NC(=N)NC(=N)N2CCCC2)cc1Cl` [Example 3, N1-pyrrolidine-N5-(3-chloro-4-methoxy)phenyl biguanide], for which the concentration for half-maximal inhibition (IC50) was greater than 100 µM. With `N=C(Nc1nc2cc(F)ccc2[nH]1)N1CCCC1` [Example 93, N-(5-fluoro-1H-benzo[d]imidazol-2-yl)pyrrolidine-1-carboximidamide], the IC50 was greater than 100 µM. For the compound `CC1CC(C)CN(C(=N)NC(=N)Nc2ccc(CNC(=O)c3ccccc3-c3c4ccc(=O)cc-4oc4cc(O)ccc34)cc2)C1` (stereo not drawn) [Example 85, N-(4-(3-((3,5-dimethylpiperidin-1-yl)(imino)methyl)guanidino)benzyl)-2-(6-hydroxy-3-oxo-3H-xanthen-9-yl)benzamide], the midpoint of inhibition, the IC50, lay at 28.8 µM. Same read-out and setting: as for `CC(C)(NC(=N)NC(=N)N1CCCC1)c1ccccc1` [Example 13, N1-pyrrolidine-N5-(2-phenylpropane-2-yl) biguanide], the figure is greater than 100 µM; as for `N=C(NC(=N)N1CC[C@@H](O)C1)Nc1ccc(OC(F)(F)F)cc1` [Example 19, N1-(R)-3-hydroxy pyrrolidine-N5-(4-trifluoromethoxy)phenyl biguanide], greater than 100 µM. Same read-out and setting: as for `CN1CCN(C(=N)NC(=N)Nc2ccc(Br)cc2)CC1` [Example 31, N1-4-methyl piperazine-N5-(4-bromo)phenyl biguanide], the figure is 93.6 µM; as for `CC1CC(C)CN(C(=N)NC(=N)Nc2ccc(CCN)cc2)C1` (stereo not drawn) [Example 49], greater than 100 µM.

Another assay relates to Miapaca-2 cell. The assay is described as follows: Inhibitory activity against cancer cells (MTT cell viability), Miapaca-2. The class given is cell-based. To be noted: Homo sapiens, MIA PaCa-2, Miapaca-2, 48 hr incubation. The protocol: as §1, §2, §3, §4
`N=C(NC(=N)N1CCCC1)Nc1ccc2c(c1)CCCC2` [Example 14, N1-pyrrolidine-N5-(5,6,7,8-tetrahydronaphthalene-2-yl) biguanide]: the IC50 came to 26.6 µM.

These data come from US10221190B2, “Biguanide compounds and use thereof” (IMMUNOMET THERAPEUTICS INC., priority 2013, dated 2019).
